Experimental data: patent publication US8039496B2, “Therapeutic compounds” (Allergan, Inc., priority 2007, dated 2011)
Read-outs that look alike come from different tables or passages of the source.

Legend:
hEP1 = molecular target: T1, hEP1 (Homo sapiens, UniProt P34995); assay: Other receptors: hEP1; format: cell-based
T1 sequence (P34995 1-402): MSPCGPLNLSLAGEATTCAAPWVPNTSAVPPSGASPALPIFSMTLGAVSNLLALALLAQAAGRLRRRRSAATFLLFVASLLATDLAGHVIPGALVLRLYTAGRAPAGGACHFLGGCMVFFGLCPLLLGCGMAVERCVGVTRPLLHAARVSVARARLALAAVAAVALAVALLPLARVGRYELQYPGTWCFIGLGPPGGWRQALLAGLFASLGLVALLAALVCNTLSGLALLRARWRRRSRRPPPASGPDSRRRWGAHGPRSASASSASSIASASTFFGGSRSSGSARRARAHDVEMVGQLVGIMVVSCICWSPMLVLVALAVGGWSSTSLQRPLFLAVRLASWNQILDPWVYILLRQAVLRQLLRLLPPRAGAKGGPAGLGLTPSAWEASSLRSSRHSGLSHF
Text: (§1) U.S. patent application Ser. No. 11/553,143, filed on Oct. 26, 2006, describes the methods used to obtain the in vitro data in the table below.

hEP3 = molecular target: T2, hEP3 (Homo sapiens, UniProt P43115); assay: Other receptors: hEP3 / hEP3A; format: cell-based
T2 sequence (P43115 1-390): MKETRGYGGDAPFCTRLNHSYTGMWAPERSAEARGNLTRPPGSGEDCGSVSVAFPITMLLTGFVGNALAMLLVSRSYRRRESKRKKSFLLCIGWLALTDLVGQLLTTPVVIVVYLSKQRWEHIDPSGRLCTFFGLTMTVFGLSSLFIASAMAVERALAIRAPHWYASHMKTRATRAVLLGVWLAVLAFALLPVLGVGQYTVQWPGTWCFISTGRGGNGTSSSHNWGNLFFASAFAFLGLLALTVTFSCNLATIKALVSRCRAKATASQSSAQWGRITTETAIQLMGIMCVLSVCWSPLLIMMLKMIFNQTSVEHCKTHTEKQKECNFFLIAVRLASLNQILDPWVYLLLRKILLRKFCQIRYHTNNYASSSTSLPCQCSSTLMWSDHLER
Text: as §1

hTP = molecular target: T3, hTP (Homo sapiens, UniProt P21731); assay: Other receptors: hTP; format: cell-based; settings: the 2nd table
T3 sequence (P21731 1-343): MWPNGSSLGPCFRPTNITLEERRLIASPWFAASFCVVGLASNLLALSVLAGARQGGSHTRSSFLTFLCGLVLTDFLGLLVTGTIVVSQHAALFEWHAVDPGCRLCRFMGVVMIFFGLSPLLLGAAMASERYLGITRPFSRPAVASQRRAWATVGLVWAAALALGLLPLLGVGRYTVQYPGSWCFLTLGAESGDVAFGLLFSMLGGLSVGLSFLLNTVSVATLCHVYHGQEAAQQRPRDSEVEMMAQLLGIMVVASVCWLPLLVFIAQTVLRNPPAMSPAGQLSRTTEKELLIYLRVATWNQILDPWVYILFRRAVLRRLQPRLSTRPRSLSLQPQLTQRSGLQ
Text: as §1

hEP2 [1] = molecular target: T4, hEP2 (Homo sapiens, UniProt P43116); assay: hEP2 flipr functional assay; format: cell-based
Text: as §1

hEP2 [2] = molecular target: T4, hEP2; assay: hEP2 cAMP functional assay; format: cell-based
Text: as §1

hEP4 [3] = molecular target: T5, hEP4 (Homo sapiens, UniProt P35408); assay: hEP4 flipr functional assay; format: cell-based
Text: as §1

hEP2 [4] = molecular target: T4, hEP2; assay: hEP2 binding (Ki)
Text: as §1

hEP4 [5] = molecular target: T5, hEP4; assay: hEP4 binding (Ki)
Text: as §1

hDP = molecular target: T6, hDP (Homo sapiens, UniProt Q13258); assay: Other receptors: hDP; format: cell-based
T6 sequence (Q13258 1-359): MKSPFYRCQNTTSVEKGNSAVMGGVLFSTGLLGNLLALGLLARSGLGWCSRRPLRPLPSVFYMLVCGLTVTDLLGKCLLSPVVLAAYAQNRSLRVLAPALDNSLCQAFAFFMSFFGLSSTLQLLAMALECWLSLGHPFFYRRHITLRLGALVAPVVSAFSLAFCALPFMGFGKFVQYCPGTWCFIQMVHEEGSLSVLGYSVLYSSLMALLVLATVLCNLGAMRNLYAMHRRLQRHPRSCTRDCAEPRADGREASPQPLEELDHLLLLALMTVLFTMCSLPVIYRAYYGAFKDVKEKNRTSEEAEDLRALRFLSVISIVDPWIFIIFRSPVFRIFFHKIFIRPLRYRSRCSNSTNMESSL
Text: as §1

[6] = the 2nd table, read-out: Other Receptors hEP3
[7] = the 2nd table, read-out: hEP2 flipr EC50
[8] = the 2nd table, read-out: hEP2 cAMP EC50
[9] = the 2nd table, read-out: hEP2 Ki
[10] = the 3rd table, read-out: Other Receptors (ED50 in nM) hEP3A
[11] = the 3rd table, read-out: EP2 data flipr EC50
[12] = the 3rd table, read-out: EP2 data cAMP EC50
[13] = the 3rd table, read-out: EP4 data flipr EC50
[14] = the 3rd table, read-out: Other Receptors (ED50 in nM) hDP
[15] = the 3rd table, read-out: EP2 data Ki
[16] = the 3rd table, read-out: EP4 data KI
[17] = the 3rd table, read-out: Other Receptors (ED50 in nM) hEP1

T5 sequence (P35408 whole entry): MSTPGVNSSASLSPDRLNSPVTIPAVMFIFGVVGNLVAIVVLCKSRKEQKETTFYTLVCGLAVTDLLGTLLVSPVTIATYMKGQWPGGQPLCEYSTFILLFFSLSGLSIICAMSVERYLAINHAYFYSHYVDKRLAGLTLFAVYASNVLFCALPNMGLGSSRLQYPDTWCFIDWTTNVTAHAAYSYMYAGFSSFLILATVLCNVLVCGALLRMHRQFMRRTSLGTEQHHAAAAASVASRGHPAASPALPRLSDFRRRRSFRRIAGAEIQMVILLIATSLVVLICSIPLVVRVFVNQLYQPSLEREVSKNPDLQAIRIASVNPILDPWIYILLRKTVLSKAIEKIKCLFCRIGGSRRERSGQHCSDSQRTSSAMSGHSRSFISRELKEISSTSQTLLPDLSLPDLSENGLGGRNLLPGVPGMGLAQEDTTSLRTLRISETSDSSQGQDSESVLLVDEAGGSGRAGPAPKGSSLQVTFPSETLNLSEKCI
T4 sequence (P43116 whole entry): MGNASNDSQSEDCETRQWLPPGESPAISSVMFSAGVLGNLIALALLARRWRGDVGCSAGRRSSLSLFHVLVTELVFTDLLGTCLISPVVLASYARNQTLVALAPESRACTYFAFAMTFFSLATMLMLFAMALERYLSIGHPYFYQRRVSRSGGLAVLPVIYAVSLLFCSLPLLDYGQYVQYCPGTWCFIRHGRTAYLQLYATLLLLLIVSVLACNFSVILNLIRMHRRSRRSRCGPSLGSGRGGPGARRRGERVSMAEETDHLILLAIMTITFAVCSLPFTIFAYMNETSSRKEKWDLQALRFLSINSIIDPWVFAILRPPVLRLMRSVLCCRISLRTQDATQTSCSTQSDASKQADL

EC50 (hEP1; the 2nd table, read-out: Other Receptors hEP1) | EC50 (hEP3; [6]) | EC50 (hTP) | EC50 (hEP2 [1]; [7]) | EC50 (hEP2 [2]; [8]) | EC50 (hEP4 [3]; the 2nd table, read-out: hEP4 flipr EC50) | Ki (hEP2 [4]; [9]) | Ki (hEP4 [5]; the 2nd table, read-out: hEP4 Ki) | EC50 (hEP3; [10]) | EC50 (hEP2 [1]; [11]) | EC50 (hEP2 [2]; [12]) | EC50 (hEP4 [3]; [13]) | EC50 (hDP; [14]) | Ki (hEP2 [4]; [15]) | Ki (hEP4 [5]; [16]) | EC50 (hEP1; [17]) | EC50 (hDP; the 2nd table, read-out: Other Receptors hDP) | Compound
5180 nM | 7210 nM | > 10 µM | 3.41 µM | 0.008 µM | 4.82 µM | 0.039 µM | 1.45 µM | – | – | – | – | – | – | – | – | – | COCc1cc(Cl)cc(OC[C@@H]2[C@@H](C/C=C\CCCC(=O)O)[C@H](Cl)C[C@H]2O)c1 [(Z)-7-[(1R,2S,3R,5R)-5-Chloro-2-(3-chloro-5-methoxymethyl-phenoxymethyl)-3-hydroxy-cyclopentyl]-hept-5-enoic acid]
– | – | – | – | – | – | – | – | 9650 nM | 0.235 µM | 0.0034 µM | 8.42 µM | 9090 nM | 0.029 µM | 2.32 µM | – | – | O=C(O)c1ccc(CCC[C@@H]2[C@@H](COc3ccccc3)[C@H](O)C[C@H]2Cl)s1 [5-(3-((1R,2S,3R,5R)-5-chloro-3-hydroxy-2-(phenoxymethyl)cyclopentyl)propyl)thiophene-2-carboxylic acid]
– | – | – | – | – | – | – | – | 4030 nM | 0.949 µM | 0.0007 µM | > 10 µM | 4150 nM | 0.0055 µM | 0.114 µM | – | – | O=C(O)c1ccc(CCC[C@@H]2[C@@H](COc3cccc4ccccc34)[C@H](O)C[C@H]2Cl)s1 [5-(3-((1R,2S,3R,5R)-5-chloro-3-hydroxy-2-((naphthalen-1-yloxy)methyl)cyclopentyl)propyl)thiophene-2-carboxylic acid]

Further lines, the compound ahead of its results:

Compound | EC50 (hEP1; the 2nd table, read-out: Other Receptors hEP1) | EC50 (hEP3; [6]) | EC50 (hTP) | EC50 (hEP2 [1]; [7]) | EC50 (hEP2 [2]; [8]) | EC50 (hEP4 [3]; the 2nd table, read-out: hEP4 flipr EC50) | Ki (hEP2 [4]; [9]) | Ki (hEP4 [5]; the 2nd table, read-out: hEP4 Ki) | EC50 (hEP3; [10]) | EC50 (hEP2 [1]; [11]) | EC50 (hEP2 [2]; [12]) | EC50 (hEP4 [3]; [13]) | EC50 (hDP; [14]) | Ki (hEP2 [4]; [15]) | Ki (hEP4 [5]; [16]) | EC50 (hEP1; [17]) | EC50 (hDP; the 2nd table, read-out: Other Receptors hDP)
CCc1cccc(OC[C@@H]2[C@@H](CCCc3ccc(C(=O)O)s3)[C@H](Cl)C[C@H]2O)c1 [5-(3-((1R,2S,3R,5R)-5-chloro-2-((3-ethylphenoxy)methyl)-3-hydroxycyclopentyl)propyl)thiophene-2-carboxylic acid] | – | – | – | – | – | – | – | – | 3570 nM | 0.447 µM | 0.0004 µM | 6.74 µM | 4440 nM | 0.004 µM | 0.214 µM | 31500 nM | –
CCCc1cccc(OC[C@@H]2[C@@H](CCCc3ccc(C(=O)O)s3)[C@H](Cl)C[C@H]2O)c1 [5-(3-((1R,2S,3R,5R)-5-chloro-3-hydroxy-2-((3-propylphenoxy)methyl)cyclopentyl)propyl)thiophene-2-carboxylic acid] | – | – | – | – | – | – | – | – | 6520 nM | 0.033 µM | 0.0004 µM | > 10 µM | – | 0.006 µM | 0.471 µM | 17900 nM | –
O=C(O)c1ccc(CCC[C@@H]2[C@@H](COc3cccc4c3CCCC4)[C@H](O)C[C@H]2Cl)s1 [5-(3-((1R,2S,3R,5R)-5-chloro-3-hydroxy-2-((5,6,7,8-tetrahydronaphthalen-1-yloxy)methyl)cyclopentyl)propyl)thiophene-2-carboxylic acid] | – | – | – | – | – | – | – | – | 5790 nM | 0.175 µM | 0.0025 µM | 9.83 µM | 8620 nM | 0.037 µM | 1.46 µM | – | –
O=C(O)CCC/C=C\C[C@@H]1[C@@H](COc2cc(Cl)cc(CCO)c2)[C@H](O)C[C@H]1Cl [(Z)-7-{(1R,2S,3R,5R)-5-Chloro-2-[3-chloro-5-(2-hydroxyethyl)-phenoxymethyl]-3-hydroxy-cyclopentyl}-hept-5-enoic acid] | – | 8830 nM | > 10 µM | 0.644 µM | 0.007 µM | – | 0.107 µM | – | – | – | – | – | – | – | – | – | > 10000 nM
